According to patent US12365687B2 (Hoffmann-La Roche Inc., priority 2021, dated 2025):

Columns and labels:
[1] = target: human GABAA α1β3γ2 receptor (Homo sapiens (Human), UniProt P14867+P18507); assay: Radioligand binding assay for γ2-containing GABAA subtypes, [3H]Flumazenil competition (α1β3γ2); conditions: for γ2/γ1 Selectivity Ratio: Ki α1β3γ2 (nM)/Ki α2β2γ1 (nM); for LogSel: Log[Ki α1β3γ2 (nM)/Ki α2β2γ1 (nM)]
[2] = target: human GABAA α5β2γ1 receptor (Homo sapiens (Human), UniProt P31644+Q8N1C3); assay: Radioligand binding assay for γ1-containing GABAA subtypes, [3H]RO7239181 competition (α5β2γ1)
[3] = target: human GABAA α2β2γ1 receptor (Homo sapiens (Human), UniProt P47869+Q8N1C3); assay: Radioligand binding assay for γ1-containing GABAA subtypes, [3H]RO7239181 competition (α2β2γ1)
[4] = target: α2β2γ1 GABAA receptor subtype (Homo sapiens (Human), UniProt P47869+Q8N1C3); assay: Two-electrode voltage clamp electrophysiology in Xenopus oocytes expressing GABAA receptors (modulation of GABA EC20 current); format: cell-based; conditions: for Efficacy (GABA)%: % modulation of GABA EC20 = 100*(Fold increase-1), α2β2γ1 oocytes, compound at approx. 30-fold Ki; for Fold increase h-GABA-A α2β2γ1 oocyte @ 30-fold Ki: Xenopus oocytes expressing α2β2γ1, compound at approx. 30-fold its Ki α2β2γ1, GABA EC20 current
Method in brief: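 Each concentration was tested on ≥3 oocytes held at −80 mV at room temperature, recorded 3-5 days post-injection. A control and a test response to EC20 GABA (1.5 min each) were superimposed and their point-by-point ratio taken. Peak ratio reported as % modulation of GABA EC20 = 100×(fold increase−1).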

[5] = Ki h-GABAA α2β2γ1, [3H]RO7239181 competition binding, human GABAA α2β2γ1
[6] = Ki h-GABAA α2β2γ1, displacement of [3H]RO7239181, membranes of HEK293F cells expressing human receptors, means of two determinations

SMILES	Ki [1] [nM]	γ2/γ1 Selectivity Ratio [1]	LogSel [1]	Ki [2] [nM]	Ki [3, 5] [nM]	Ki [3, 6] [nM]	Efficacy (GABA)% [4] [%]	Fold increase h-GABA-A α2β2γ1 oocyte @ 30-fold Ki [4]
C[C@@H]1N=C(c2c(F)cccc2F)c2c(ccc(Cl)c2Cl)-n2nc(C(=O)NC[C@@H](C)O)nc21 [Example 65, (4S)-7,8-dichloro-6-(2,6-difluorophenyl)-4-methyl-N-[(2R)-2-hydroxypropyl]-4H-[1,2,4]triazolo[1,5-a][1,4]benzodiazepine-2-carboxamide]	492	84.8	1.93	0.5	5.8	5.8	80	1.80
C[C@@H]1N=C(c2c(F)cccc2F)c2c(ccc(Cl)c2Cl)-n2nc(N3CC(O)C3)nc21 [Example 66, 1-[(4S)-7,8-dichloro-6-(2,6-difluorophenyl)-4-methyl-4H-[1,2,4]triazolo[1,5-a][1,4]benzodiazepin-2-yl]azetidin-3-ol]	241	39.7	1.60	1.24	6.1	6.1	58	1.58
CC(=O)NCc1nc2n(n1)-c1ccc(Cl)c(Cl)c1C(c1c(F)cccc1F)=N[C@H]2C [Example 67, N-[[(4S)-7,8-dichloro-6-(2,6-difluorophenyl)-4-methyl-4H-[1,2,4]triazolo[1,5-a][1,4]benzodiazepin-2-yl]methyl]acetamide]	503	96.5	1.98	0.79	5.2	5.2	47	1.47
C[C@@H]1N=C(c2c(F)cccc2F)c2c(ccc(Cl)c2Cl)-n2cc(C(=O)N3CC(O)C3)nc21 [Example 68, (3-hydroxyazetidin-1-yl)-[(4S)-7,8-dichloro-6-(2,6-difluorophenyl)-4-methyl-4H-imidazo[1,2-a][1,4]benzodiazepin-2-yl]methanone]	318	44.0	1.64	1.48	7.2	7.2	107	2.07
C[C@@H]1N=C(c2c(F)cccc2F)c2c(ccc(Cl)c2Cl)-n2nc(S(N)(=O)=O)nc21 [Example 69, (4S)-7,8-dichloro-6-(2,6-difluorophenyl)-4-methyl-4H-[1,2,4]triazolo[1,5-a][1,4]benzodiazepine-2-sulfonamide]	1150	60.1	1.78	0.77	19.2	19.2	97	1.97
C[C@@H]1N=C(c2c(F)cccc2F)c2c(ccc(Cl)c2Cl)-n2cc(C(=O)N3CCC3)nc21 [Example 70, azetidin-1-yl-[(4S)-7,8-dichloro-6-(2,6-difluorophenyl)-4-methyl-4H-imidazo[1,2-a][1,4]benzodiazepin-2-yl]methanone]	500	26.7	1.43	1.08	18.7	18.7	73	1.73
C[C@@H]1N=C(c2c(F)cccc2F)c2c(ccc(Cl)c2Cl)-n2cc(C(=O)N3CC(C#N)C3)nc21 [Example 71, 1-[(4S)-7,8-dichloro-6-(2,6-difluorophenyl)-4-methyl-4H-imidazo[1,2-a][1,4]benzodiazepine-2-carbonyl]azetidine-3-carbonitrile]	389	32.8	1.52	1.84	11.9	11.9	51	1.51
C[C@@H]1N=C(c2c(F)cccc2F)c2c(ccc(Cl)c2Cl)-n2nc(C(=O)N3CC(CF)C3)nc21 [Example 72, [3-(fluoromethyl)azetidin-1-yl]-[(4S)-7,8-dichloro-6-(2,6-difluorophenyl)-4-methyl-4H-[1,2,4]triazolo[1,5-a][1,4]benzodiazepin-2-yl]methanone]	727	100.6	2.00	1.1	7.2	7.2	44	1.44
CNS(=O)(=O)c1nc2n(n1)-c1ccc(Cl)c(Cl)c1C(c1c(F)cccc1F)=N[C@H]2C [Example 73, (4S)-7,8-dichloro-6-(2,6-difluorophenyl)-N,4-dimethyl-4H-[1,2,4]triazolo[1,5-a][1,4]benzodiazepine-2-sulfonamide]	2170	44.1	1.64	2.97	49.1	49.1	58	1.58
C[C@@H]1N=C(c2c(F)cccc2F)c2c(ccc(Cl)c2Cl)-n2cc(C#N)nc21 [Example 74, (4S)-7,8-dichloro-6-(2,6-difluorophenyl)-4-methyl-4H-imidazo[1,2-a][1,4]benzodiazepine-2-carbonitrile]	593	61.8	1.79	0.7	9.6	9.6	75	1.75
C[C@@H]1N=C(c2c(F)cccc2F)c2c(ccc(Cl)c2Cl)-n2nc(C(=O)N3CC(C(F)F)C3)nc21 [Example 75, [3-(difluoromethyl)azetidin-1-yl]-[(4S)-7,8-dichloro-6-(2,6-difluorophenyl)-4-methyl-4H-[1,2,4]triazolo[1,5-a][1,4]benzodiazepin-2-yl]methanone]	737	53.4	1.73	1.14	13.8	13.8	41	1.41
C[C@@H]1N=C(c2c(F)cccc2F)c2c(ccc(Cl)c2Cl)-n2nc(C(=O)N3CC[C@@H](F)C3)nc21 [Example 76, [(4S)-7,8-dichloro-6-(2,6-difluorophenyl)-4-methyl-4H-[1,2,4]triazolo[1,5-a][1,4]benzodiazepin-2-yl]-[(3R)-3-fluoropyrrolidin-1-yl]methanone]	968	157.7	2.20	1.64	6.1	6.1	52	1.52
C[C@@H]1N=C(c2c(F)cccc2F)c2c(ccc(Cl)c2Cl)-n2nc(N3CC(C#N)C3)nc21 [Example 77, 1-[(4S)-7,8-dichloro-6-(2,6-difluorophenyl)-4-methyl-4H-[1,2,4]triazolo[1,5-a][1,4]benzodiazepin-2-yl]azetidine-3-carbonitrile]	279	27.2	1.44	1	10.2	10.2	69	1.69
